Data from paper PMC6686047, “Efficient Inhibition of Human Papillomavirus Infection by L2 Minor Capsid-Derived Lipopeptide” (mBio, 2019).

Tested on: intracellular HPV L1 and L2
Assay: Immunoblot detection of intracellular L1 and L2
Assay type: cell-based, HPV16
Conditions: CHO-K1 cells, HPV-GFP MOI of 50; 500 nM 13-46st, 100 nM BafA1 or both for 24 h
Description: FIG 5 The L2N lipopeptide blocks HPV entry without affecting HPV capsid priming and internalization. (A) Cell binding and uptake of L2N lipopeptide. HeLa cells were incubated with 500 nM FITC-m13-46st peptide for indicated times. Images were captured after three PBS washes. Bar, 25 μm. (B) L2N lipopeptide inhibits HPV-GFP entry. HeLa cells were treated with 500 nM L2N lipopeptide (13-46st) before (pre), during (co), or after (post) HPV-GFP inoculation. Mock, no peptide treatment. GFP intensity was analyzed at 36 hpi. Bar, 200 μm. (C) Peptide addition/withdrawal assays were performed as indicated in the schematic diagram (top). CHO-K1 cells were incubated with HPV-Lucia at 4°C for 2 h. […] Lucia activity was analyzed at 40 hpi. […] Intracellular L1 and L2 levels were determined by immunoblotting with MD2H11 and JWW-1, respectively. […] HPV L2 JWW-1 epitope exposure was analyzed by immunostaining with JWW-1 antibody (in red). […]
FIG 6 The L2N lipopeptide blocks TGN trafficking of HPV, leading to rapid virion degradation. […] Localization of the TGN (green) was analyzed by immunostaining with anti-P230 antibody. […] The ratios of EdU puncta in the nucleus (B) or in the TGN (C) were quantified based on representative images under each condition. P values were determined by ordinary one-way ANOVA with Dunnett’s multiple-comparison test (n = 10) ****, P < 0.0001. […]

Q: With `CO/C1=C\C(C)=C\[C@@H](C)[C@@H](O)[C@@H](C)C/C(C)=C/C=C/[C@H](OC)[C@@H]([C@@H](C)[C@@H](O)[C@H](C)[C@@]2(O)C[C@@H](O)[C@H](C)[C@@H](C(C)C)O2)OC1=O` [BafA1, bafilomycin A1] as the compound, how does the “intracellular full-length L1 and L2 levels” value read?
A: The value was “prevented L1 and L2 degradation”.
